This assay concerns the target T1, CFTR, genotype Non-CF (“wild-type”/“wild-type”) (Homo sapiens, UniProt P13569).
T1 construct: Non-CF; endogenous in cells
The assay can be described thus: Activity by CFTR genotype with compound A (Example 79, Table 2). The assay is classed as cell-based. Particulars: Relative Activity of 100% = Vehicle treated, 10 uM. The method, then: Table 2 indicates mutation type and activity with compounds/combination with compound A. ## indicates activity at 30 uM of 50% to <100% of the indicated relative activity treatment, #### indicates activity at 30 uM of ≥150% of the indicated relative activity treatment, + indicates activity at 10 uM of 15% to <50% of the indicated relative activity treatment, ++ indicates activity at 10 uM of 50% to <100% of the indicated relative activity treatment, +++ indicates activity at 10 uM of 100% to <150% of the indicated relative activity treatment, ++++ indicates activity at 10 uM of >150% of the indicated relative activity treatment. NB124 is used at 250 ug/ml, ivacaftor is used at 1 uM, lumacaftor is used at 3 uM, and VX-661 is used at 3 uM.

These results are taken from US20240139158A1, “METHODS OF TREATING PULMONARY DISEASES AND DISORDERS” (Proteostasis Therapeutics, Inc., priority 2015, published 2024).

T1 sequence (P13569 whole entry): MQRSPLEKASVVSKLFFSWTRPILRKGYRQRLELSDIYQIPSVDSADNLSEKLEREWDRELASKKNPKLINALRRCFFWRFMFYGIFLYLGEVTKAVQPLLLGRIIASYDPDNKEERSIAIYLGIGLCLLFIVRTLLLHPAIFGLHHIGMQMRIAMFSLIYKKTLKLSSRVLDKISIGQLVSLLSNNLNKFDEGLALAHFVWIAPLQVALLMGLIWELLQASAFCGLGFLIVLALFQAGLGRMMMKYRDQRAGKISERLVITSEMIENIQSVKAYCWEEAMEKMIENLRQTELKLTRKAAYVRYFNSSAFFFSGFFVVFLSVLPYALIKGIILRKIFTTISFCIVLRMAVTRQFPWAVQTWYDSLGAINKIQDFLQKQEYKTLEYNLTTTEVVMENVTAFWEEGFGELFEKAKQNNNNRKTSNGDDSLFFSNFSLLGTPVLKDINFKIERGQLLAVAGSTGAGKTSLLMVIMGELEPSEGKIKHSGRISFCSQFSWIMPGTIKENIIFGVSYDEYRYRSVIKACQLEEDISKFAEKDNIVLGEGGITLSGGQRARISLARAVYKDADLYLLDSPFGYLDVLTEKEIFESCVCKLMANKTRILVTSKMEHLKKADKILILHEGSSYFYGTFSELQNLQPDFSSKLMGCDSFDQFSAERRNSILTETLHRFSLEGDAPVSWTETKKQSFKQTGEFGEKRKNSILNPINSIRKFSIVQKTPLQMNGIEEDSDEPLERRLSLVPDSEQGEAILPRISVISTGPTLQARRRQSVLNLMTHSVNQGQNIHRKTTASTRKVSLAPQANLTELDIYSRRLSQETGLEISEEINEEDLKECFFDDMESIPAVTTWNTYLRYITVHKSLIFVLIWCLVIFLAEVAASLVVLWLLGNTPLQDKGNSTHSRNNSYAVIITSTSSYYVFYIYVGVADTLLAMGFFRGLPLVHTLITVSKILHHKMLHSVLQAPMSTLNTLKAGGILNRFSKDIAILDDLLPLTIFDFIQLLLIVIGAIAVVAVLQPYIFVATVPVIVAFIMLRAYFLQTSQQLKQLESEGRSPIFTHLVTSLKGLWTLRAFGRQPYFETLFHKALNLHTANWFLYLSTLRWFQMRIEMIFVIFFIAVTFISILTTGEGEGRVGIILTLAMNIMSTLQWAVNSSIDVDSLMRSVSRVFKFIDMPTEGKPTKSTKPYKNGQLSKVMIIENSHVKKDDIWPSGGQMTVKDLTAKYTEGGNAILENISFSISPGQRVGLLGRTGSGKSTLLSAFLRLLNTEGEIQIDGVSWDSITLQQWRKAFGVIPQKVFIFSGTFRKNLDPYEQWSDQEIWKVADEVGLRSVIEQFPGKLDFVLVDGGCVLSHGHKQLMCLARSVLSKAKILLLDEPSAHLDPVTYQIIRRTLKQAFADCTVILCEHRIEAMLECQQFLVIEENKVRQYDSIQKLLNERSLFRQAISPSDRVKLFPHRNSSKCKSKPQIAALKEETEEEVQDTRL

As to `C[C@@H](O)c1nnc(C2CC(NC(=O)c3cc(-c4ccccc4)no3)C2)o1` (stereo partly shown) [Compound A], the “Stand Alone activity” value is reported as “+++ (activity at 10 uM of 100% to <150% of the indicated relative activity treatment)”.
